Columns and labels:
Aurora kinase B [1] = molecular target: T1, Aurora kinase B (Homo sapiens, UniProt Q96GD4); assay: Inhibition of Aurora B at 1 uM relative to control; values are per cent of control
Angiopoietin-1 receptor [2] = molecular target: T2, Angiopoietin-1 receptor (Homo sapiens, UniProt Q02763); assay: Inhibition of Tie2 at 1 uM relative to control; values are per cent of control
Aurora kinase B [3] = molecular target: T1, Aurora kinase B; assay: Inhibition of Aurora B
[4] = molecular target: T3, Aurora kinase A (Homo sapiens) (UniProt O14965); assay: Inhibition of Aurora A at 1 uM relative to control; values are per cent of control
T3 sequence (whole entry): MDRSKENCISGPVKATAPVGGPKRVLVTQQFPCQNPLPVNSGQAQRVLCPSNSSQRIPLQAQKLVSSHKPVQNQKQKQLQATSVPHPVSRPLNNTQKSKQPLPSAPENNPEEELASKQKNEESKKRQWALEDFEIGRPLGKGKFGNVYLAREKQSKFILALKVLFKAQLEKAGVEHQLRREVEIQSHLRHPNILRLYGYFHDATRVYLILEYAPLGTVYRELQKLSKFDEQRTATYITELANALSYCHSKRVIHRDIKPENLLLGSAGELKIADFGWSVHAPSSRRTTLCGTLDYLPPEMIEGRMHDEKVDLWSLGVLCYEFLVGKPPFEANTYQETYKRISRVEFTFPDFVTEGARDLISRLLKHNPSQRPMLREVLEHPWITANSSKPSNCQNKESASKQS

[5] = molecular target: Tyrosine-protein kinase Lck (Homo sapiens, UniProt P06239); assay: Inhibition of LCK
Sequence of Tyrosine-protein kinase Lck (P06239 whole entry): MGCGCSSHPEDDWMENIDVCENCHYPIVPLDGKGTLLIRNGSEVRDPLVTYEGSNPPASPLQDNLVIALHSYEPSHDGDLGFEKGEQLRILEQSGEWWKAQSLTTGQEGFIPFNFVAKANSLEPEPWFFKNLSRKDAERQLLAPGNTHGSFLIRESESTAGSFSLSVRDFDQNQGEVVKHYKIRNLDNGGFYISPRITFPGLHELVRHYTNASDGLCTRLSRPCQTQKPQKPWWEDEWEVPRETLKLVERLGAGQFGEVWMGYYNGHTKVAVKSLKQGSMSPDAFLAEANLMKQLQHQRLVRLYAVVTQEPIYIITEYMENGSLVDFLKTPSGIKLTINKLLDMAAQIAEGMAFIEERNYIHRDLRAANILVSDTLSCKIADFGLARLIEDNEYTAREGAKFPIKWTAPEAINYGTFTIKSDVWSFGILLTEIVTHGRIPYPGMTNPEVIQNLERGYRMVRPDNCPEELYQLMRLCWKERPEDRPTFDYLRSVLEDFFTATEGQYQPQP

[6] = Selectivity ratio of IC50 for Aurora A to IC50 for Tie2
[7] = molecular target: T4, Vascular endothelial growth factor receptor 2 (Homo sapiens, UniProt P35968); assay: Inhibition of KDR at 1 uM relative to control; values are per cent of control
T4 sequence (P35968 whole entry): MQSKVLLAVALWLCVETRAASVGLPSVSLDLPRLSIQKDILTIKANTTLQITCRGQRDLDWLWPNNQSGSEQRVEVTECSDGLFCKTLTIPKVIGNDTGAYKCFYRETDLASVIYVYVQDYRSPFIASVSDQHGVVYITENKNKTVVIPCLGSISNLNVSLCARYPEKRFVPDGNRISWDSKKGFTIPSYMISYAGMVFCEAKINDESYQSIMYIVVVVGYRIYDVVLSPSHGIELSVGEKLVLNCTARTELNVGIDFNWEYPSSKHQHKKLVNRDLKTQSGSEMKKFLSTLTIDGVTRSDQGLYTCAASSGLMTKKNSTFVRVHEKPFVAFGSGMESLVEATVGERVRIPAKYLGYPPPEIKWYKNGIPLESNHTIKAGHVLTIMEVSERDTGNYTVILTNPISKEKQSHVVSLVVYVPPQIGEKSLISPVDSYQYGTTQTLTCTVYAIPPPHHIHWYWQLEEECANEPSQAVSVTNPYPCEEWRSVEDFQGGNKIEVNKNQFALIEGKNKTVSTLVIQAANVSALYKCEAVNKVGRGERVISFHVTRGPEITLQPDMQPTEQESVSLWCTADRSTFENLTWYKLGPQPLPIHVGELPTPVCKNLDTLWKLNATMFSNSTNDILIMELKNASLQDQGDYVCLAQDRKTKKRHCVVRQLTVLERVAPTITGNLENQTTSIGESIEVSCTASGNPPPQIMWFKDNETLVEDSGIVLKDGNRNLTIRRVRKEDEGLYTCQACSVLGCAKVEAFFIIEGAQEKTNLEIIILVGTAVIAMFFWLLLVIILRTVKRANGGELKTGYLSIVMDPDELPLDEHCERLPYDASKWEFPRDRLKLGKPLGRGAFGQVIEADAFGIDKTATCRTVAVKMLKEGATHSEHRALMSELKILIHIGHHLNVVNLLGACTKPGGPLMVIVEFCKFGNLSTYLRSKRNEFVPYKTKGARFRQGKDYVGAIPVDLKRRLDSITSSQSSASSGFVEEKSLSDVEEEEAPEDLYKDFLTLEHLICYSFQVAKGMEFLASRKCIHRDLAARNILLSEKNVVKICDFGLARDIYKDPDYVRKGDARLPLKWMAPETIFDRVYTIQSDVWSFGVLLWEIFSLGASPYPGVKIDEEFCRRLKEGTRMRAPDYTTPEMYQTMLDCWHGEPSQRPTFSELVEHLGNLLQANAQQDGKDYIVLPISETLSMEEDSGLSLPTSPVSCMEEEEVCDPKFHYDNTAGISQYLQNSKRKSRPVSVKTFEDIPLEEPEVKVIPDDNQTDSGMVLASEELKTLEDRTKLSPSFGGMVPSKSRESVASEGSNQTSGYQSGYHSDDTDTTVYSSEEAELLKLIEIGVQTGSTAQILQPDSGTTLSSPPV

[8] = Selectivity ratio of IC50 for LCK to IC50 for Tie2
[9] = Selectivity ratio of IC50 for Aurora B to IC50 for Tie2
Angiopoietin-1 receptor [10] = molecular target: T2, Angiopoietin-1 receptor; assay: Inhibition of Tie2
Aurora kinase A = molecular target: T5, Aurora kinase A (Homo sapiens, UniProt O14965); assay: Inhibition of Aurora A
T5 sequence (O14965 whole entry): T3 sequence (whole entry)

[11] = molecular target: T4, Vascular endothelial growth factor receptor 2; assay: Inhibition of KDR
[12] = Selectivity ratio of IC50 for KDR to IC50 for Tie2

T2 sequence (Q02763 whole entry): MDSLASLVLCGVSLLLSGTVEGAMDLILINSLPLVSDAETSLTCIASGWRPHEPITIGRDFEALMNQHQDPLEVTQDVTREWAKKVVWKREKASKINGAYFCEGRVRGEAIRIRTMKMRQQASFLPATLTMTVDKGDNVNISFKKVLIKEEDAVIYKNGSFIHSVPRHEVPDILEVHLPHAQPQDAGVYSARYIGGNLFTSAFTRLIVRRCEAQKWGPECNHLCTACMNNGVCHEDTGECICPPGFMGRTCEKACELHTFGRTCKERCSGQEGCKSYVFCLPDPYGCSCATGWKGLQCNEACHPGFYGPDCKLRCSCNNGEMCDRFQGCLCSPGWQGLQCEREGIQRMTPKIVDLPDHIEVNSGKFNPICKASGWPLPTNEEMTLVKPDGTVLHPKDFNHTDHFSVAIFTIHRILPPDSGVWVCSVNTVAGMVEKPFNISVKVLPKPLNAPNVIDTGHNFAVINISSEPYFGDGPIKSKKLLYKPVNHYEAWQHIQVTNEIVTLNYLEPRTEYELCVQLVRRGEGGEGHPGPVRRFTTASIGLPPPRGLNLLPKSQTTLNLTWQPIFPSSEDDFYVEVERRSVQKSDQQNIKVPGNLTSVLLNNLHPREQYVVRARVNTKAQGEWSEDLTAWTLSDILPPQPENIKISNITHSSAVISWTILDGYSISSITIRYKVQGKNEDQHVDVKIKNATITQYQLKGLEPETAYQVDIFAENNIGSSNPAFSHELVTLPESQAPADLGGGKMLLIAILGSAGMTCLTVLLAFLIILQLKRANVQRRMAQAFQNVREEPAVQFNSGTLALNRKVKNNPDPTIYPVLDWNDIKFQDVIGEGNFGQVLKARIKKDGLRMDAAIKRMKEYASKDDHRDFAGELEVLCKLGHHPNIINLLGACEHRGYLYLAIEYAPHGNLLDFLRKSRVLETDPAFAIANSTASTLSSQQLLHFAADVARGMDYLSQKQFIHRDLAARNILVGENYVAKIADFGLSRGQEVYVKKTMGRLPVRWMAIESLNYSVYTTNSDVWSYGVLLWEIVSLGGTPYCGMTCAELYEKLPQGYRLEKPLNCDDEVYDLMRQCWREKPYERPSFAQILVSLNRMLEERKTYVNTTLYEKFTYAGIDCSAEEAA
T1 sequence (Q96GD4 whole entry): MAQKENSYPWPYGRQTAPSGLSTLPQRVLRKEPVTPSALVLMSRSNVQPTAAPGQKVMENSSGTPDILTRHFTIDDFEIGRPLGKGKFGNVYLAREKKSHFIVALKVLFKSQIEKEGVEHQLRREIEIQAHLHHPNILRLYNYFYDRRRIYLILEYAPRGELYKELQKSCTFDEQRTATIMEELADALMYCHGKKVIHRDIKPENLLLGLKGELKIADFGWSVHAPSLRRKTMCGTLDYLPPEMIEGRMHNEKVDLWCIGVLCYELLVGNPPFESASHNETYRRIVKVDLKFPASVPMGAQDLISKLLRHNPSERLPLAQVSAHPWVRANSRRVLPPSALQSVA

Row | residual activity (Aurora kinase B [1]) | residual activity (Angiopoietin-1 receptor [2]) | IC50 (Aurora kinase B [3]) | residual activity [4] | IC50 [5] | Ratio IC50 [6] | residual activity [7] | Ratio IC50 [8] | Ratio IC50 [9] | IC50 (Angiopoietin-1 receptor [10]) | IC50 [11] | Ratio IC50 [12] | Structure (SMILES) | IC50 (Aurora kinase A)
1 | 43% | 8% | 759 nM | 62% | 10000 nM | 20 | 91% | 123 | 9 | 82 nM | 10 µM | 123 | CN(C)CC(C)(C)CNc1nccc(-c2cccnc2Oc2ccc(Nc3nc4ccccc4[nH]3)c3ccccc23)n1 | 1660 nM
2 | 2% | 1% | 23 nM | 5% | 48 nM | 10 | 4% | 9 | 4 |  |  | 7 | CNc1nccc(-c2cccnc2Oc2ccc(NC(=O)Nc3ccccc3)c3ccccc23)n1 | 52 nM
3 | 5% | 18% | 55 nM | 18% | 4090 nM | 1 | 69% | 19 | 0.1 | 215 nM | 2.22 µM | 10 | CNc1nccc(-c2cccnc2Oc2ccc(NC(=O)NC(C)(C)C)c3ccccc23)n1 | 225 nM
4 | 7% | 0% | 77 nM | 3% | 405 nM |  | 91% |  |  |  | 10 µM |  | CNc1nccc(-c2cccnc2Oc2c(C)cc(Nc3nc4ccccc4[nH]3)c3ccccc23)n1 | 29 nM
5 | 31% | 8% | 454 nM | 52% | 4800 nM | 12 | 86% | 56 | 5 | 86 nM | 6.36 µM | 74 | CNc1nccc(-c2cccnc2Oc2ccc(Nc3nc4ccncc4[nH]3)c3ccccc23)n1 | 1070 nM
6 | 1% | 0% | 9 nM | 2% | 292 nM | 14 | 58% | 211 | 7 |  |  | 998 | CNc1nccc(-c2cccnc2Oc2ccc(Nc3nc4ccccc4[nH]3)c3ccccc23)n1 | 
7 | 5% | 3% |  | 2% |  | 1 | 6% | 5 | 2 |  |  | 3 | CNc1nccc(-c2cccnc2Oc2ccc(Nc3nc4ccc(C(F)(F)F)cc4[nH]3)c3ccccc23)n1 | 

Row | Structure (SMILES) | residual activity (Aurora kinase B [1]) | residual activity (Angiopoietin-1 receptor [2]) | IC50 (Aurora kinase B [3]) | residual activity [4] | IC50 [5] | Ratio IC50 [6] | residual activity [7] | Ratio IC50 [8] | Ratio IC50 [9] | IC50 (Angiopoietin-1 receptor [10]) | IC50 [11] | Ratio IC50 [12] | IC50 (Aurora kinase A)
8 | CN1CCCC1CCNc1nccc(-c2cccnc2Oc2ccc(Nc3nc4ccccc4[nH]3)c3ccccc23)n1 (stereo unspecified) | 4% | 0% | 47 nM | 25% | 269 nM | 146 | 67% | 120 | 21 | 2 nM | 2.06 µM |  | 327 nM
9 | CNc1nccc(-c2cccnc2Oc2ccc(Nc3nc4ccccc4o3)c3ccccc23)n1 | 12% | 2% | 134 nM | 12% | 25 nM | 9 | 3% | 2 | 3 |  |  | 2 | 141 nM
10 | CNc1nccc(-c2cccnc2Oc2ccc(Nc3nc4ccccc4s3)c3ccccc23)n1 | 13% | 4% | 143 nM | 28% | 80 nM | 9 | 8% | 2 | 3 |  |  | 2 | 380 nM
11 | CCN1CCC(CNc2nccc(-c3cccnc3Oc3ccc(Nc4nc5ccccc5[nH]4)c4ccccc34)n2)CC1 | 9% | 0% | 100 nM | 25% | 387 nM | 332 | 64% | 387 | 100 | 1 nM | 1.75 µM | 1750 | 332 nM
12 | CNc1nccc(-c2cccnc2Oc2ccc(Nc3nc4cc(C(F)(F)F)ccc4[nH]3)c3ccccc23)n1 |  |  | 56 nM |  | 132 nM |  |  |  |  |  |  |  | 16 nM
